From patent US20210047291A1, “PESTICIDALLY ACTIVE HETEROCYCLIC DERIVATIVES WITH SULFUR CONTAINING SUBSTITUENTS” (SYNGENTA PARTICIPATIONS AG, priority 2018, published 2021)

Assays:
[1] = test system: Myzus persicae (Green peach aphid); assay: Example B6: Myzus persicae systemic activity, pea seedlings; type: in vivo; settings: for mortality at 1.5 ppm: Concentration 1.5 ppm, Myzus persicae (systemic, Example B6), read-out: Mortality (%); for mortality at 24 ppm: Myzus persicae, 144 h, test rate of 24 ppm, mixed ages, 6 days after placing seedlings into test solutions, read-out: mortality
Method: Roots of pea seedlings infested with an aphid population of mixed ages were placed directly into aqueous test solutions prepared from 10,000 DMSO stock solutions. The samples were assessed for mortality 6 days after placing seedlings into test solutions.

[2] = test system: Diabrotica Balteata (Corn Root Worm); assay: Example B2: Diabrotica balteata, maize sprouts, L2 larvae; type: in vivo; settings: Diabrotica balteata, 96 h, application rate of 200 ppm; L2 larvae; 4 days after infestation; read-out: effect in at least one of the two categories (mortality or growth inhibition)
Method: Maize sprouts placed onto an agar layer in 24-well microtiter plates were treated with aqueous test solutions prepared from 10,000 ppm DMSO stock solutions by spraying. After drying, the plates were infested with L2 larvae (6 to 10 per well). The samples were assessed for mortality and growth inhibition in comparison to untreated samples 4 days after infestation.

[3] = test system: Myzus persicae (Green peach aphid); assay: Example B5: Myzus persicae feeding/contact activity, sunflower leaf discs; type: in vivo; settings: foliar; for mortality at 200 ppm: Myzus persicae, 144 h, application rate of 200 ppm, mixed ages, 6 days after infestation, read-out: mortality; for mortality at 12.5 ppm: Concentration 12.5 ppm, Myzus persicae (feeding/contact, Example B5), read-out: Mortality (%)
Method: Sunflower leaf discs were placed onto agar in a 24-well microtiter plate and sprayed with aqueous test solutions prepared from 10,000 ppm DMSO stock solutions. After drying, the leaf discs were infested with an aphid population of mixed ages. The samples were assessed for mortality 6 days after infestation.

[4] = test system: Euschistus heros (Neotropical Brown Stink Bug); assay: Example B3: Euschistus heros, soybean leaves, N2 nymphs; type: in vivo; settings: for mortality at 50 ppm: Concentration 50 ppm, Euschistus heros (Example B3), read-out: Mortality (%); for percent effect (mortality or growth inhibition) at 200 ppm: Euschistus heros, 120 h, application rate of 200 ppm, N2 nymphs, 5 days after infestation, read-out: effect in at least one of the two categories (mortality or growth inhibition)
Method: Soybean leaves on agar in 24-well microtiter plates were sprayed with aqueous test solutions prepared from 10,000 ppm DMSO stock solutions. After drying the leaves were infested with N2 nymphs. The samples were assessed for mortality and growth inhibition in comparison to untreated samples 5 days after infestation.

[5] = test system: Tetranychus urticae (Two-Spotted Spider Mite); assay: Example B10: Tetranychus urticae feeding/contact activity, bean leaf discs; type: in vivo; settings: foliar, 192 h, application rate of 200 ppm, mixed population (mobile stages), 8 days after infestation
Method: Bean leaf discs on agar in 24-well microtiter plates were sprayed with aqueous test solutions prepared from 10,000 ppm DMSO stock solutions. After drying the leaf discs were infested with a mite population of mixed ages. The samples were assessed for mortality on mixed population (mobile stages) 8 days after infestation.

[6] = test system: Melodoigyne incognita; assay: Example B14: Melodoigyne incognita juvenile mobility, in vitro profiling in 96 well plate; type: in vivo; settings: 200 ppm; after 24 h; second stage juveniles; read-out: control (juvenile mobility)
In short: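 Second-stage juveniles (100–150 per well, freshly harvested) were exposed in triplicate to test solutions prepared at 1000, 200, 100, 50, 25 and 12.5 ppm before nematode suspension was added. Plates were kept 24 h at room temperature in the dark. Juvenile mobility was measured by imaging and compared with 12 untreated replicates.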

[7] = test system: Frankliniella occidentalis (Western Flower Thrips); assay: Example B4: Frankliniella occidentalis feeding/contact activity, sunflower leaf discs; type: in vivo; settings: foliar, 168 h, application rate of 200 ppm, mixed ages, 7 days after infestation
Method: (§1) Sunflower leaf discs were placed on agar in 24-well microtiter plates and sprayed with aqueous test solutions prepared from 10,000 DMSO stock solutions. After drying the leaf discs were infested with a Frankliniella population of mixed ages. The samples were assessed for mortality 7 days after infestation.

[8] = test system: Bemisia tabaci (Cotton White Fly); assay: Example B1: Bemisia tabaci feeding/contact activity, cotton leaf discs; type: in vivo; settings: foliar, 144 h, application rate of 200 ppm, adult white flies, 6 days after incubation
Method: Cotton leaf discs were placed on agar in 24-well microtiter plates and sprayed with aqueous test solutions prepared from 10,000 ppm DMSO stock solutions. After drying the leaf discs were infested with adult white flies. The samples were checked for mortality 6 days after incubation.

[9] = test system: Plutella xylostella (Diamond Back Moth); assay: Example B7: Plutella xylostella, artificial diet, L2 larvae; type: in vivo; settings: 120 h, application rate of 200 ppm, L2 larvae, 5 days after infestation, read-out: effect in at least one of the two categories (mortality or growth inhibition)
Method: 24-well microtiter plates with artificial diet were treated with aqueous test solutions prepared from 10,000 ppm DMSO stock solutions by pipetting. After drying, the plates were infested with L2 larvae (10 to 15 per well). The samples were assessed for mortality and growth inhibition in comparison to untreated samples 5 days after infestation.

[10] = test system: Thrips tabaci (Onion Thrips); assay: Example B11: Thrips tabaci feeding/contact activity, sunflower leaf discs; type: in vivo; settings: foliar, 144 h, application rate of 200 ppm, mixed ages, 6 days after infestation
Method: as §1, with “10,000 ppm” for “10,000”, “thrips” for “Frankliniella”, “6” for “7”

[11] = test system: Nilaparvata lugens (Brown Plant Hopper); assay: Example B21: Nilaparvata lugens, larvicide, feeding/contact, rice plants; type: in vivo; settings: Concentration 3 ppm, NILALU (contact)
Method: Rice plants were treated with the diluted test solutions in a spray chamber. After drying plants were infested with ˜20 N3 nymphs. 7 days after the treatment samples were assessed for mortality and growth regulation.

[12] = test system: Myzus persicae (Green peach aphid); assay: Example B19: Myzus persicae, mixed population, contact/feeding, pepper plants; type: in vivo; settings: Concentration 3 ppm, MYZUPE (contact)
Method: Pepper plants were infested with mixed aged aphid population and were treated 1 day after infestation with diluted test solutions in a spray chamber. 5 days after treatment samples were assessed for mortality.

[13] = test system: Frankliniella occidentalis (Western Flower Thrips); assay: Example B23: Frankliniella occidentalis, mixed population, systemic into soil (drench), French bean plants; type: in vivo; settings: Concentration 3 ppm, FRANOC (drench)
Method: French bean plants cultivated in field soil, were treated via drench application and 1 day after treatment they were infested with mixed aged thrips population. 8 days after infestation samples were assessed for mortality and phytotoxicity symptoms.

[14] = test system: Myzus persicae (Green peach aphid); assay: Example B20: Myzus persicae, mixed population, systemic into soil (drench), pea seedlings; type: in vivo; settings: Concentration 0.2 ppm, MYZUPE (drench)
Method: Pea seedlings cultivated in field soil and infested 1 day before treatment with mixed aged aphid population were treated as drench application and checked for mortality 7 days after treatment.

[15] = test system: Frankliniella occidentalis (Western Flower Thrips); assay: Example B22: Frankliniella occidentalis, mixed population, contact/feeding, French bean plants; type: in vivo; settings: Concentration 50 ppm, FRANOC (contact)
Method: French bean plants were treated with diluted test solutions in a spray chamber. After drying plants were infested with a mixed aged thrips population. 7 days after infestation, samples were assessed for mortality.

[16] = test system: Spodoptera littoralis (Egyptian Cotton Leaf Worm); assay: Example B9: Spodoptera littoralis, cotton leaf discs (mortality, anti-feeding, growth inhibition); type: in vivo; settings: foliar, 72 h, application rate of 200 ppm, L1 larvae, 3 days after infestation, read-out: control (mortality, anti-feeding effect or growth inhibition)
Method: Cotton leaf discs were placed onto agar in 24-well microtiter plates and sprayed with aqueous test solutions prepared from 10,000 ppm DMSO stock solutions. After drying the leaf discs were infested with five L1 larvae. The samples were assessed for mortality, anti-feeding effect, and growth inhibition in comparison to untreated samples 3 days after infestation. Control of Spodoptera littoralis by a test sample is given when at least one of the categories mortality, anti-feedant effect, and growth inhibition is higher than the untreated sample.

| SMILES | mortality at 24 ppm [1] [%] | percent effect (mortality or growth inhibition) at 200 ppm [2] [%] | mortality at 200 ppm [3] [%] | percent effect (mortality or growth inhibition) at 200 ppm [4] [%] | pest or weed control at 200 ppm [6] [%] | mortality at 200 ppm [7] [%] | mortality at 200 ppm [8] [%] | percent effect (mortality or growth inhibition) at 200 ppm [9] [%] | further results |
| --- | --- | --- | --- | --- | --- | --- | --- | --- | --- |
| CCN(C(C)=O)c1cnc(-c2nc3cc(C(F)(F)F)ncc3n2C)c(S(=O)(=O)CC)c1 [P21, N-ethyl-N-[5-ethylsulfonyl-6-[3-methyl-6-(trifluoromethyl)imidazo[4,5-c]pyridin-2-yl]-3-pyridyl]acetamide] | ≥ 80 | ≥ 80 | ≥ 80 | ≥ 80 | ≥ 80 | ≥ 80 |  |  | mortality at 1.5 ppm [1]: 100%; mortality at 12.5 ppm [3]: 100%; mortality at 50 ppm [4]: 100%; mortality at 200 ppm [5]: ≥ 80% |
| CCS(=O)(=O)c1cc(N(C)C(=O)C(C)C)cnc1-c1nc2cc(C(F)(F)F)ncc2n1C [P27, N-[5-ethylsulfonyl-6-[3-methyl-6-(trifluoromethyl)imidazo[4,5-c]pyridin-2-yl]-3-pyridyl]-N,2-dimethyl-propanamide] | ≥ 80 |  | ≥ 80 | ≥ 80 | ≥ 80 |  | ≥ 80 | ≥ 80 |  |
| CCS(=O)(=O)c1cc(NC(=O)C2CC2)cnc1-c1nc2cc(C(F)(F)F)ncc2n1C [P2, N-[5-ethylsulfonyl-6-[3-methyl-6-(trifluoromethyl)imidazo[4,5-c]pyridin-2-yl]-3-pyridyl]cyclopropanecarboxamide] | ≥ 80 | ≥ 80 | ≥ 80 | ≥ 80 |  | ≥ 80 |  | ≥ 80 | mortality at 1.5 ppm [1]: 80%; mortality at 200 ppm [10]: ≥ 80% |
| CCS(=O)(=O)c1cc(N(C)C(C)=O)cnc1-c1nc2cc(C(F)(F)F)ncc2n1C [P6, N-[5-ethylsulfonyl-6-[3-methyl-6-(trifluoromethyl)imidazo[4,5-c]pyridin-2-yl]-3-pyridyl]-N-methyl-acetamide] | ≥ 80 | ≥ 80 | ≥ 80 | ≥ 80 | ≥ 80 | ≥ 80 | ≥ 80 | ≥ 80 | mortality at 3 ppm [11]: 80%; mortality at 3 ppm [12]: 70%; mortality at 3 ppm [13]: 92.5%; mortality at 200 ppm [5]: ≥ 80%; mortality at 0.2 ppm [14]: 92.5%; mortality at 50 ppm [15]: 98%; percent control (mortality, anti-feedant effect or growth inhibition) at 200 ppm [16]: ≥ 80% |
| CCS(=O)(=O)c1cc(N(C)C(=O)CSC)cnc1-c1nc2cc(C(F)(F)F)ncc2n1C [P14, N-[5-ethylsulfonyl-6-[3-methyl-6-(trifluoromethyl)imidazo[4,5-c]pyridin-2-yl]-3-pyridyl]-N-methyl-2-methylsulfanyl-acetamide] | ≥ 80 | ≥ 80 | ≥ 80 | ≥ 80 | ≥ 80 |  | ≥ 80 |  | percent control (mortality, anti-feedant effect or growth inhibition) at 200 ppm [16]: ≥ 80% |
| CCS(=O)(=O)c1cc(NC(=O)C(F)(F)F)ccc1-c1nc2cc(C(F)(F)F)ncc2n1C [P3, N-[3-ethylsulfonyl-4-[3-methyl-6-(trifluoromethyl)imidazo[4,5-c]pyridin-2-yl]phenyl]-2,2,2-trifluoro-acetamide] |  |  |  |  |  |  |  |  | melting point: 260 °C |
| CCS(=O)(=O)c1ccc(N(C)C(C)=O)nc1-c1nc2cc(C(F)(F)F)ncc2n1C [reference compound] |  |  |  |  |  |  |  |  | mortality at 3 ppm [11]: 30%; mortality at 3 ppm [12]: 20%; mortality at 3 ppm [13]: 35%; mortality at 0.2 ppm [14]: 50%; mortality at 50 ppm [15]: 0% |
| CCS(=O)(=O)c1cc(N2CCSC2=O)cnc1-c1nc2cc(C(F)(F)F)ncc2n1C [P45, 3-[5-ethylsulfonyl-6-[3-methyl-6-(trifluoromethyl)imidazo[4,5-c]pyridin-2-yl]-3-pyridyl]thiazolidin-2-one] | ≥ 80 | ≥ 80 | ≥ 80 | ≥ 80 | ≥ 80 |  | ≥ 80 | ≥ 80 | mortality at 1.5 ppm [1]: 50%; mortality at 12.5 ppm [3]: 80%; mortality at 50 ppm [4]: 100%; mortality at 200 ppm [5]: ≥ 80%; percent control (mortality, anti-feedant effect or growth inhibition) at 200 ppm [16]: ≥ 80% |
| CCSc1cc(NC(=O)C(C)(C)O)cnc1-c1nc2cc(C(F)(F)F)ncc2n1C [P7, N-[5-ethylsulfanyl-6-[3-methyl-6-(trifluoromethyl)imidazo[4,5-c]pyridin-2-yl]-3-pyridyl]-2-hydroxy-2-methyl-propanamide] |  |  |  |  |  |  |  |  | melting point: 195 to 196 °C |
| CCSc1cc(NC(=O)C2CC2)cnc1-c1nc2cc(C(F)(F)F)ncc2n1C [P1, N-[5-ethylsulfanyl-6-[3-methyl-6-(trifluoromethyl)imidazo[4,5-c]pyridin-2-yl]-3-pyridyl]cyclopropanecarboxamide] |  | ≥ 80 |  |  |  | ≥ 80 |  |  | mortality at 200 ppm [10]: ≥ 80% |
| CCS(=O)(=O)c1cc(N2CCSCC2=O)cnc1-c1nc2cc(C(F)(F)F)ncc2n1C [P19, 4-[5-ethyslulfonyl-6-[3-methyl-6-(trifluoromethyl)imidazo[4,5-c]pyridin-2-yl]-3-pyridyl]thiomorpholin-3-one] |  |  |  |  | ≥ 80 |  |  |  | melting point: 211 to 213 °C |
